Assay results: ChEMBL document CHEMBL1140271, “Synthesis and antibacterial activity of 5-methoxy- and 5-hydroxy-6-fluoro-1,8-naphthyridone-3-carboxylic acid derivatives” (Bioorg Med Chem Lett, 2005)
In brackets after ≈: the same amount, converted by molar mass.

Assays:
[1] = tested on: Streptococcus pneumoniae; assay: Inhibitory concentration against Streptococcus pneumoniae translation; assay type: functional, organism-based
[2] = tested on: Haemophilus influenzae; assay: Minimum inhibitory concentration against Haemophilus influenzae GYR 1435 gram-negative strain; assay type: functional
[3] = tested on: Streptococcus pneumoniae; assay: Minimum inhibitory concentration against Streptococcus pneumoniae 7257 Quinolone-resistant strain; assay type: functional

O=C(O)c1cnc2nc(N3CCC3)c(F)cc2c1O
IC50 [1]: 5 µM | MIC [2]: 1 µg/mL (≈ 3.8 µM) | MIC [3]: 4 µg/mL (≈ 15.2 µM)

NC1CCN(c2nc3ncc(C(=O)O)c(O)c3c(O)c2F)C1 (centres undefined)
IC50 [1]: 17 µM | MIC [2]: 32 µg/mL (≈ 104 µM) | MIC [3]: 64 µg/mL (≈ 208 µM)

COc1c(F)c(N2CCC2)nc2ncc(C(=O)O)c(O)c12
IC50 [1]: 14 µM | MIC [2]: 32 µg/mL (≈ 109 µM) | MIC [3]: 8 µg/mL (≈ 27.3 µM)

COc1c(F)c(N2CCC(N)C2)nc2ncc(C(=O)O)c(O)c12 (centres undefined)
IC50 [1]: 4 µM | MIC [2]: 64 µg/mL (≈ 199 µM) | MIC [3]: 64 µg/mL (≈ 199 µM)

COc1c(F)c(N2CCCC2)nc2ncc(C(=O)O)c(O)c12
IC50 [1]: 32 µM | MIC [2]: 64 µg/mL (≈ 208 µM) | MIC [3]: 32 µg/mL (≈ 104 µM)

NC1CCN(c2nc3ncc(C(=O)O)c(O)c3cc2F)C1 (centres undefined)
IC50 [1]: 7 µM | MIC [2]: 4 µg/mL (≈ 13.7 µM) | MIC [3]: 32 µg/mL (≈ 109 µM)

C[C@H]1COc2c(N3CCN(C)CC3)c(F)cc3c(=O)c(C(=O)O)cn1c23.C[C@H]1COc2c(N3CCN(C)CC3)c(F)cc3c(=O)c(C(=O)O)cn1c23.O [LEVOFLOXACIN]
IC50 [1]: > 100 µM | MIC [2]: 0.015 µg/mL

O=C(O)c1cnc2nc(N3CCC3)c(F)c(O)c2c1O
IC50 [1]: 200 µM | MIC [2]: 64 µg/mL (≈ 229 µM) | MIC [3]: 64 µg/mL (≈ 229 µM)

O=C(O)c1cnc2nc(N3CCCC3)c(F)c(O)c2c1O
IC50 [1]: 51 µM | MIC [2]: 4 µg/mL (≈ 13.6 µM) | MIC [3]: 4 µg/mL (≈ 13.6 µM)

O=C(O)c1cnc2nc(N3CCCC3)c(F)cc2c1O
IC50 [1]: 10 µM | MIC [2]: 1 µg/mL (≈ 3.61 µM) | MIC [3]: 4 µg/mL (≈ 14.4 µM)
